Experimental findings from ChEMBL document CHEMBL1201862, “PubChem BioAssay data set” (2004) are described below.

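Briefly, cells in 96-well plates were exposed to five compound concentrations for 48 h, and endpoints were estimated by linear interpolation. GI50: concentration for 50% inhibition of growth.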 Activity calls are given as the source filed them. Cut-off read from the data, not from the text of the source: active = GI50 up to about 1.1 µM and inactive = higher. A value given as a limit tells only on which side of the number the result lay.

Test systems include A498; CCRF-CEM; COLO 205; EKVX; HCC 2998; HCT-116; HL-60; Hs-578T; IGROV-1; NCI-H226; NCI/ADR-RES; OVCAR-3; OVCAR-4; SF-295; SK-MEL-2; SK-MEL-5; SNB-75; U-251; UACC-257; KM-20L2.
What all share (assay): inhibition of tumour cell growth, NCI panel, 48 h

With `O=C(Nc1cnc(O)nc1O)Oc1ccccc1`, the GI50 with A498, with CCRF-CEM, in the assay with COLO 205, in the assay with EKVX, in the assay with HCC 2998 and in the assay on HCT-116 was > 100 µM (inactive) each time. Moreover, the GI50 is 14.3 µM (inactive) in the assay on HL-60; > 100 µM (inactive) with Hs-578T; > 100 µM (inactive) with IGROV-1; > 100 µM (inactive) in the assay on NCI-H226; > 100 µM (inactive) in the assay on NCI/ADR-RES; > 100 µM (inactive) in the assay with OVCAR-3. The GI50 in the assay with OVCAR-4, in the assay with SF-295, in the assay with SK-MEL-2, in the assay with SK-MEL-5, in the assay with SNB-75 and with U-251 was > 100 µM (inactive) throughout. Moreover, the GI50 in the assay on UACC-257 was > 100 µM (inactive).
In the case of `CC(=O)OC1(C(C)=O)CC2(c3ccccc3)OC1(c1ccccc1)c1ccccc12` (stereo unspecified), the GI50 in the assay on COLO 205 is 7.67 µM (inactive); in the assay on EKVX it was 5.26 µM (inactive); in the assay with HCC 2998, 16.8 µM (inactive); in the assay with HCT-116 it was 7.78 µM (inactive); in the assay with IGROV-1, 4.91 µM (inactive); with KM-20L2 it was 8.59 µM (inactive). Moreover, the GI50 was 5.98 µM (inactive) with NCI-H226; 11.4 µM (inactive) in the assay with OVCAR-3; 33.3 µM (inactive) with SF-295; 12.6 µM (inactive) in the assay on SK-MEL-2; 3.37 µM (inactive) with SK-MEL-5; 59.6 µM (inactive) with SNB-75. Moreover, the GI50 in the assay on U-251 was 18.2 µM (inactive); in the assay on UACC-257 it was 4.1 µM (inactive).
On to `C#CCn1c(=O)ccn(/C(=C\C(=O)OCC)C(=O)OCC)c1=O`, for which the GI50 in the assay on A498 is 17.1 µM (inactive); in the assay on CCRF-CEM, 0.381 µM (active); in the assay on COLO 205 it was 1.11 µM (active); with EKVX, 6.28 µM (inactive); with HCC 2998 it was 19.9 µM (inactive); in the assay with HCT-116, 5.53 µM (inactive). Also, the GI50 is 2.93 µM (inactive) with HL-60; 27.7 µM (inactive) in the assay on Hs-578T; 9.08 µM (inactive) in the assay on IGROV-1; 19.9 µM (inactive) with NCI-H226; 7.64 µM (inactive) in the assay with NCI/ADR-RES; 5.61 µM (inactive) in the assay on OVCAR-3. Besides, the GI50 in the assay on OVCAR-4 is 2.85 µM (inactive); with SF-295 it was 22.9 µM (inactive); in the assay with SK-MEL-2, 16.4 µM (inactive); in the assay with SK-MEL-5 it was 20.5 µM (inactive); with SNB-75, 20 µM (inactive); with U-251, 14.3 µM (inactive). Also, the GI50 with UACC-257 was 15.3 µM (inactive).
As to `CC(=O)Nc1cc([As](=O)(O)O)ccc1O` [ACETARSONE], the GI50 with A498, in the assay with CCRF-CEM, in the assay on COLO 205, in the assay on EKVX, in the assay with HCC 2998 and with HCT-116 was > 100 µM (inactive) each time. Further, the GI50 with HL-60, in the assay on Hs-578T, with IGROV-1, with NCI-H226, with NCI/ADR-RES and in the assay with OVCAR-3 was > 100 µM (inactive) throughout. For the same compound, the GI50 in the assay with OVCAR-4, with SF-295, in the assay on SK-MEL-2, in the assay with SK-MEL-5, with SNB-75 and with U-251 was > 100 µM (inactive) in each case. Further, the GI50 in the assay on UACC-257 was > 100 µM (inactive).
